Experimental data published in patent US20090176817A1, “Method of Treatment of Diarrhea-Predominant Irritable Bowel Syndrome in a Subject” (priority 2005, published 2009).

Experiments:
Format in all cases: in vivo, human
[1] = Study S241.1.111: relative bioavailability and food effect, 2 mg tablet vs oral solution; details: for Tmax: median
Experimental: Subjects were randomized to receive a cilansetron 2 mg tablet after an overnight fast, a cilansetron 2 mg tablet after a high-fat breakfast, and a cilansetron 2 mg oral solution after an overnight fast during the three treatment periods, with a 7-day washout between periods. Serial blood sampling was performed up to 24 hours following each treatment, and plasma pharmacokinetics parameters for cilansetron and its metabolites, (4R)-hydroxy cilansetron and (4S)-hydroxy cilansetron, were estimated. FIG. 4, FIG. 5, and FIG. 6 present mean plasma concentration-time profiles for cilansetron and its metabolites following treatment with the cilansetron tablet and oral solution. Table 2.7.1.2.2 presents descriptive statistics for the pharmacokinetic parameters of cilansetron and its metabolites for the tablet and oral solution, and the results of statistical comparisons between treatments (tablet versus solution).
Subjects were randomized to receive a cilansetron 2 mg tablet after an overnight fast, a cilansetron 2 mg tablet after a high-fat breakfast, and a cilansetron 2 mg oral solution after an overnight fast during the three treatment periods, with a 7-day washout between periods. Serial blood sampling was performed up to 24 hours following each treatment and plasma pharmacokinetics parameters for cilansetron and its metabolites, (4R)-hydroxy cilansetron and (4S)-hydroxy cilansetron, were estimated. FIG. 7, FIG. 8, and FIG. 9 present mean plasma concentration-time profiles for cilansetron and its metabolites following treatment with the cilansetron tablet under fasted conditions and following a high-fat meal. Table 2.7.1.2.4 presents descriptive statistics for the pharmacokinetic parameters of cilansetron and its metabolites for the tablet under fed and fasted conditions, and the results of statistical comparisons between treatments (fed versus fasted).

[2] = Study S.241.1.109: interaction with ketoconazole 200 mg BID; details: for AUC(0-τ) / Cmax / Tmax: steady state; for AUC(0-τ): AUC(0-8); for AUC(0-τ) / Cmax: arith. mean; for Tmax: median; for AUC(0-τ) Ratio (Treatment B/A) / Cmax Ratio (Treatment B/A): cilansetron + ketoconazole / cilansetron alone, ANOVA of log-transformed data
Experimental: In an open-label, randomized, parallel-group study in three groups of 12 healthy, male and female subjects (aged 19 to 45 years), subjects received a 2 mg single dose of cilansetron on Day 1, 2 mg TID on Days 2-13, and a 2 mg single dose on Day 14. […] All morning doses of cilansetron and enzyme inhibitors were administered immediately after a standard breakfast. […] For each treatment group, log-transformed cilansetron AUC(0-τ) and Cmax values on Day 14 (cilansetron+enzyme inhibitor) were compared statistically versus values on Day 7 (cilansetron alone).

[3] = Study S.241.2.112: population pharmacokinetics (NONMEM) in IBS patients; details: for CL/F / T½ / predicted steady-state AUC(0-τ) / predicted steady-state Cmax: IBS patients; for CL/F / T½: Bayesian estimates, population PK model, arith. mean; for predicted steady-state AUC(0-τ) / predicted steady-state Cmax: covariate population PK model, mean (SD); for Increase of apparent oral clearance per 1 mL/min creatinine clearance: population model
Experimental: The pharmacokinetics and pharmacodynamics of cilansetron following multiple oral administration in non-constipated IBS patients have been examined in a population pharmacokinetic (NONMEM) analysis of a Phase II trial. The study was a double-blind, placebo-controlled, randomized, multi-center, parallel-group, dose ranging study to investigate the Efficacy and safety of four different doses of cilansetron (1 mg, 2 mg, 8 mg, and 16 mg TID) in patients with established IBS (non-constipated patients who suffered from IBS according to the Rome Criteria and were not bothered by constipation for >25% of their IBS episodes). The study was to be performed in approximately 50 centers. A sufficient number of patients were to be recruited to insure that at least 88 patients per treatment group were evaluable for efficacy and to get a total of 440 completers. […] There were interim assessments at the end of the 4th week (Visit 3; Day 29) and 8th week (Visit 4; Day 57) and a final assessment at the end of the 12th week (Visit 5; poststudy). Single blood samples for population pharmacokinetic analyses were drawn at Visits 3, 4, 5 or early termination, at 31 of the participating sites. With the exception of Visit 3, the timing of the blood draw in relation to the previous dose was not specified for any of the samples collected, but the time of sampling and the time of last dosing was recorded for each sample collected. For Visit 3, the blood sample had to be taken between 15 minutes and 2 hours of the morning or midday dose.
Various covariates were screened during development of the population pharmacokinetic model, including age, height, weight, body surface area, body mass index, race, gender, smoking status, serum creatinine levels, serum creatinine clearance, total bilirubin levels, cilansetron dose, and concomitant medication usage. Some efficacy and safety parameters were also evaluated in this population analysis using correlation analyses. Efficacy parameters evaluated included overall relief of IBS symptoms (Responder or Non-Responder), intensity of abdominal pain, number of stools and stool consistency, symptoms of abdominal and rectal discomfort (straining, urgency, feeling of incomplete defecation, passage of mucus, bloating, and feeling of abdominal distension), and upper GI symptoms at Visit 5 (vomiting, heartburn, early satiety, postprandial fullness, sensation of prolonged digestion, and nausea). Safety parameters evaluated included the top ten most frequently observed adverse events (constipation, flatulence, nausea, abdominal pain, headache, dyspepsia, infection, gastrointestinal disorders, anorexia, and diarrhea).
The population analysis included data from 160 patients (63 males and 97 females) with a median age of 45.5 years (range: 20-81 years), median weight of 78 kg (range: 47-121 kg), and median height of 170 cm (range: 147-196 cm). More than 90% of the patients were White and 18.8% of the patients were considered smokers. […] A total of 392 quantifiable concentrations for cilansetron, 393 quantifiable concentrations for (4S)-hydroxy cilansetron, and 397 quantifiable concentrations for (4R)-hydroxy cilansetron from 160 patients were included in the NONMEM datasets for population analyses.
FIG. 54, FIG. 55, and FIG. 56 present mean steady-state plasma concentration-time profiles for cilansetron and its 4-hydroxy metabolites, and Table 2.7.2.3.29 and Table 2.7.2.3.30 present descriptive statistics for the estimated pharmacokinetic parameters of cilansetron and its 4-hydroxy metabolites from the final covariate population pharmacokinetic model. The cilansetron concentration data were best described by a one-compartment model with first-order input, an absorption lag time, and first-order elimination. A log-normal distribution was used to describe the variability of clearance, volume of distribution and absorption rate constant between patients. The residual error was best described by an exponential model. […]

[4] = 2 mg tablet, fasted, single dose
[5] = 2 mg tablet, fed (high-fat breakfast)
[6] = Cilansetron 2 mg TID + Ketoconazole 200 mg twice daily
[7] = Cilansetron 2 mg TID alone (ketoconazole group)

| SMILES | AUC(0-inf) ([1]; 2 mg oral solution, fasted) | AUC(0-last) ([1]; 2 mg oral solution, fasted) | Cmax ([1]; 2 mg oral solution, fasted) | T½ ([1]; 2 mg oral solution, fasted) | Tmax ([1]; 2 mg oral solution, fasted) | AUC(0-inf) [1, 4] | AUC(0-last) [1, 4] | Cmax [1, 4] | T½ [1, 4] | Tmax ([1]; 2 mg tablet, fasted) | AUC(0-inf) ([1]; 2 mg tablet, fed) | Cmax ([1]; 2 mg tablet, fed) | T½ ([1]; 2 mg tablet, fed) | AUC(0-last) [1, 5] | Tmax ([1]; 2 mg tablet, fed) | AUC(0-τ) [2, 6] | Cmax [2, 6] | Tmax [2, 6] | AUC(0-τ) [2, 7] | Cmax [2, 7] | also measured |
| --- | --- | --- | --- | --- | --- | --- | --- | --- | --- | --- | --- | --- | --- | --- | --- | --- | --- | --- | --- | --- | --- |
| Cc1nccn1CC1CCc2c(c3cccc4c3n2CC[C@H]4O)C1=O (stereo partly drawn) [(4R)-hydroxy cilansetron] | 14.3 (26) ng · h/mL | 13.5 (27) ng · h/mL | 2.82 (26) ng/mL | 3.90 (19) h | 1.00 h | 14.4 (25) ng · h/mL | 13.7 (26) ng · h/mL | 2.87 (20) ng/mL | 3.90 (22) h | 1.25 h | 13.6 (26) ng · h/mL | 2.23 (26) ng/mL | 4.46 (31) h | 12.8 (27) ng · h/mL | 1.75 h | 0.0208 µg·h/mL | 5.11 ng/mL | 1.50 h | 0.0122 µg·h/mL | 2.48 ng/mL | Tmax [2, 7]: 2.00 h; AUC(0-τ) Ratio (Treatment B/A) [2]: 176%; Cmax Ratio (Treatment B/A) [2]: 209%; CL/F ([3]; cilansetron 1 mg TID): 234 L/h; T½ ([3]; cilansetron 1 mg TID): 9.55 h; predicted steady-state AUC(0-τ) ([3]; cilansetron 1 mg TID): 6.42 (1.40) ng · h/mL; predicted steady-state Cmax ([3]; cilansetron 1 mg TID): 1.05 (0.19) ng/mL; CL/F ([3]; cilansetron 2 mg TID): 232 L/h; T½ ([3]; cilansetron 2 mg TID): 9.56 h; predicted steady-state AUC(0-τ) ([3]; cilansetron 2 mg TID): 13.0 (2.64) ng · h/mL; predicted steady-state Cmax ([3]; cilansetron 2 mg TID): 2.17 (0.37) ng/mL; CL/F ([3]; cilansetron 8 mg TID): 229 L/h; T½ ([3]; cilansetron 8 mg TID): 9.79 h; predicted steady-state AUC(0-τ) ([3]; cilansetron 8 mg TID): 53.0 (10.1) ng · h/mL; predicted steady-state Cmax ([3]; cilansetron 8 mg TID): 8.56 (1.70) ng/mL; CL/F ([3]; cilansetron 16 mg TID): 232 L/h; T½ ([3]; cilansetron 16 mg TID): 9.80 h; predicted steady-state AUC(0-τ) ([3]; cilansetron 16 mg TID): 98.6 (18.8) ng · h/mL; predicted steady-state Cmax ([3]; cilansetron 16 mg TID): 16.7 (3.0) ng/mL; Increase of apparent oral clearance per 1 mL/min creatinine clearance [3]: 0.447 L/h |
| Cc1nccn1CC1CCc2c(c3cccc4c3n2CC[C@@H]4O)C1=O (stereo partly drawn) [(4S)-hydroxy cilansetron] | 7.20 (23) ng · h/mL | 5.82 (24) ng · h/mL | 0.607 (19) ng/mL | 7.13 (25) h | 3.00 h | 7.31 (22) ng · h/mL | 5.98 (22) ng · h/mL | 0.637 (17) ng/mL | 7.26 (32) h | 3.00 h | 7.54 (19) ng · h/mL | 0.602 (17) ng/mL | 7.94 (34) h | 6.10 (19) ng · h/mL | 4.00 h | 0.0135 µg·h/mL | 2.29 ng/mL | 2.00 h | 0.00842 µg·h/mL | 1.35 ng/mL | Tmax [2, 7]: 3.00 h; AUC(0-τ) Ratio (Treatment B/A) [2]: 163%; Cmax Ratio (Treatment B/A) [2]: 174%; CL/F ([3]; cilansetron 1 mg TID): 140 L/h; T½ ([3]; cilansetron 1 mg TID): 5.42 h; predicted steady-state AUC(0-τ) ([3]; cilansetron 1 mg TID): 3.85 (0.92) ng · h/mL; predicted steady-state Cmax ([3]; cilansetron 1 mg TID): 0.546 (0.105) ng/mL; CL/F ([3]; cilansetron 2 mg TID): 136 L/h; T½ ([3]; cilansetron 2 mg TID): 5.55 h; predicted steady-state AUC(0-τ) ([3]; cilansetron 2 mg TID): 7.68 (1.59) ng · h/mL; predicted steady-state Cmax ([3]; cilansetron 2 mg TID): 1.10 (0.20) ng/mL; CL/F ([3]; cilansetron 8 mg TID): 134 L/h; T½ ([3]; cilansetron 8 mg TID): 5.64 h; predicted steady-state AUC(0-τ) ([3]; cilansetron 8 mg TID): 31.6 (7.68) ng · h/mL; predicted steady-state Cmax ([3]; cilansetron 8 mg TID): 4.46 (1.04) ng/mL; CL/F ([3]; cilansetron 16 mg TID): 142 L/h; T½ ([3]; cilansetron 16 mg TID): 5.31 h; predicted steady-state AUC(0-τ) ([3]; cilansetron 16 mg TID): 63.2 (16.5) ng · h/mL; predicted steady-state Cmax ([3]; cilansetron 16 mg TID): 9.03 (2.03) ng/mL; Increase of apparent oral clearance per 1 mL/min creatinine clearance [3]: 0.883 L/h |
